# Legend:
# [1] = The drug is tested on Eubacterium ventriosum strain: ATCC27560 for biotransformation. The drug concentrations were measured before and after a 12-h incubation by liquid-chromatography-coupled mass spectrometry (LC–MS); format: ADME; set-up: dose 2 uM, timepoint 0 vs 12 hours; details: 2 µM
# [2] = The drug is tested on Bacteroides xylanisolvens strain: DSM18836 for biotransformation. The drug concentrations were measured before and after a 12-h incubation by liquid-chromatography-coupled mass spectrometry (LC–MS); details: 2 µM
# [3] = The drug is tested on Escherichia coli strain: BW25113 for biotransformation. The drug concentrations were measured before and after a 12-h incubation by liquid-chromatography-coupled mass spectrometry (LC–MS); details: 2 µM
# [4] = The drug is tested on Eggerthella lenta strain: ATCC25559 for biotransformation. The drug concentrations were measured before and after a 12-h incubation by liquid-chromatography-coupled mass spectrometry (LC–MS); details: 2 µM
# [5] = victivallis vadensis, 12 h, 2 µM
# Description: The drug is tested on Victivallis vadensis strain: ATCC BAA-548 for biotransformation. The drug concentrations were measured before and after a 12-h incubation by liquid-chromatography-coupled mass spectrometry (LC–MS)
# [6] = bacteroides thetaiotaomicron, 12 h, 2 µM
# Description: The drug is tested on Bacteroides thetaiotaomicron strain: 3731 for biotransformation. The drug concentrations were measured before and after a 12-h incubation by liquid-chromatography-coupled mass spectrometry (LC–MS)
# [7] = The drug is tested on Anaerococcus hydrogenalis strain: DSM7454 for biotransformation. The drug concentrations were measured before and after a 12-h incubation by liquid-chromatography-coupled mass spectrometry (LC–MS); details: 2 µM
Compound,Bacterial Biotransformation [1],Bacterial Biotransformation [2],Bacterial Biotransformation [3],Bacterial Biotransformation [4],Bacterial Biotransformation [5],Bacterial Biotransformation [6],Bacterial Biotransformation [7]
CCC(COC(=O)c1cc(OC)c(OC)c(OC)c1)(c1ccccc1)N(C)C.O=C(O)/C=C\C(=O)O (configuration not stated),Compound metabolized,Compound metabolized,Compound metabolized,Compound metabolized,Compound metabolized,Compound metabolized,Compound metabolized
CC1=C(CC(=O)O)c2cc(F)ccc2/C1=C\c1ccc([S+](C)[O-])cc1 (configuration not stated),Compound NOT metabolized,Compound NOT metabolized,Compound NOT metabolized,Compound NOT metabolized,Compound NOT metabolized,Compound NOT metabolized,Compound NOT metabolized
CCN(CC)CCNC(C(=O)OCCC(C)C)c1ccccc1.Cl.Cl (configuration not stated),Compound NOT metabolized,Compound NOT metabolized,–,–,Compound NOT metabolized,–,Compound NOT metabolized
O=C(NCc1ccccc1)OCCO [BURAMATE],Compound NOT metabolized,Compound NOT metabolized,Compound NOT metabolized,Compound NOT metabolized,Compound NOT metabolized,Compound NOT metabolized,–
CCCCCCOC(=O)/N=C(/N)c1ccc(NCc2nc3cc(C(=O)N(CCC(=O)OCC)c4ccccn4)ccc3n2C)cc1.CS(=O)(=O)O [DABIGATRAN ETEXILATE MESYLATE],Compound NOT metabolized,–,Compound NOT metabolized,Compound NOT metabolized,Compound NOT metabolized,–,Compound NOT metabolized
C#C[C@]1(OC(C)=O)CC[C@H]2[C@@H]3CCC4=C[C@@H](OC(C)=O)CC[C@@H]4[C@H]3CC[C@@]21C [ETHYNODIOL DIACETATE],Compound NOT metabolized,Compound NOT metabolized,–,Compound NOT metabolized,Compound NOT metabolized,Compound NOT metabolized,Compound NOT metabolized
N=C(N)NC(=O)Cc1c(Cl)cccc1Cl [GUANFACINE],–,Compound NOT metabolized,Compound NOT metabolized,–,Compound NOT metabolized,–,Compound NOT metabolized
CCCCc1nc(Cl)c(CO)n1Cc1ccc(-c2ccccc2-c2nn[nH]n2)cc1 [LOSARTAN],Compound NOT metabolized,Compound metabolized,–,Compound NOT metabolized,Compound NOT metabolized,Compound NOT metabolized,Compound NOT metabolized
CC(C)(C)N.CCC[C@H](N[C@@H](C)C(=O)N1[C@H](C(=O)O)C[C@@H]2CCCC[C@@H]21)C(=O)OCC [PERINDOPRIL ERBUMINE],Compound NOT metabolized,Compound NOT metabolized,Compound NOT metabolized,–,Compound NOT metabolized,–,Compound NOT metabolized
C[C@]12C=CC(=O)C=C1CC[C@@H]1[C@@H]2C(=O)C[C@@]2(C)[C@H]1CC[C@]2(O)C(=O)CO [PREDNISONE],Compound NOT metabolized,Compound NOT metabolized,Compound NOT metabolized,–,Compound NOT metabolized,Compound NOT metabolized,Compound NOT metabolized
CS(=O)(=O)O.OC(CCN1CCCCC1)(c1ccccc1)c1ccccc1 [PRIDINOL METHANESULFONATE],Compound NOT metabolized,Compound NOT metabolized,Compound NOT metabolized,Compound NOT metabolized,Compound NOT metabolized,Compound NOT metabolized,Compound NOT metabolized
CNNCc1ccc(C(=O)NC(C)C)cc1 [PROCARBAZINE],Compound NOT metabolized,Compound NOT metabolized,Compound NOT metabolized,–,Compound NOT metabolized,Compound NOT metabolized,Compound NOT metabolized
CCN(CC)CCCC(C)Nc1c2ccc(Cl)cc2nc2ccc(OC)cc12 (configuration not stated) [QUINACRINE],Compound NOT metabolized,Compound NOT metabolized,Compound NOT metabolized,Compound NOT metabolized,Compound NOT metabolized,Compound NOT metabolized,–
CC(N)C12CC3CC(CC(C3)C1)C2 (configuration not stated) [RIMANTADINE],Compound NOT metabolized,Compound NOT metabolized,–,Compound NOT metabolized,Compound NOT metabolized,Compound NOT metabolized,Compound NOT metabolized
CC(C)c1nc(CN(C)C(=O)N[C@H](C(=O)N[C@@H](Cc2ccccc2)C[C@H](O)[C@H](Cc2ccccc2)NC(=O)OCc2cncs2)C(C)C)cs1 [RITONAVIR],Compound NOT metabolized,Compound metabolized,Compound metabolized,Compound NOT metabolized,Compound NOT metabolized,Compound NOT metabolized,Compound NOT metabolized
CCN(C)C(=O)Oc1cccc([C@H](C)N(C)C)c1.O=C(O)C(O)C(O)C(=O)O [RIVASTIGMINE TARTRATE],Compound NOT metabolized,Compound NOT metabolized,Compound NOT metabolized,Compound NOT metabolized,Compound NOT metabolized,Compound NOT metabolized,Compound NOT metabolized
CN(C)CCc1c[nH]c2ccc(Cn3cncn3)cc12.O=C(O)c1ccccc1 [RIZATRIPTAN BENZOATE],Compound NOT metabolized,Compound NOT metabolized,–,Compound NOT metabolized,Compound NOT metabolized,Compound NOT metabolized,Compound NOT metabolized
CCCN(CCC)CCc1cccc2c1CC(=O)N2 [ROPINIROLE],Compound NOT metabolized,Compound NOT metabolized,Compound NOT metabolized,Compound NOT metabolized,Compound NOT metabolized,–,Compound NOT metabolized
CC(C)c1nc(N(C)S(C)(=O)=O)nc(-c2ccc(F)cc2)c1/C=C/[C@@H](O)C[C@@H](O)CC(=O)[O-].CC(C)c1nc(N(C)S(C)(=O)=O)nc(-c2ccc(F)cc2)c1/C=C/[C@@H](O)C[C@@H](O)CC(=O)[O-].[Ca+2] [ROSUVASTATIN CALCIUM],Compound NOT metabolized,Compound NOT metabolized,Compound NOT metabolized,–,Compound NOT metabolized,Compound NOT metabolized,Compound NOT metabolized
O=C(O)CCC(=O)O.O=C(O[C@H]1CN2CCC1CC2)N1CCc2ccccc2[C@@H]1c1ccccc1 [SOLIFENACIN SUCCINATE],Compound NOT metabolized,–,–,Compound NOT metabolized,Compound NOT metabolized,Compound NOT metabolized,Compound NOT metabolized
CC(C)NCC(O)c1ccc(NS(C)(=O)=O)cc1 (configuration not stated) [SOTALOL],–,Compound NOT metabolized,Compound NOT metabolized,Compound NOT metabolized,Compound NOT metabolized,Compound NOT metabolized,Compound NOT metabolized
CNS(=O)(=O)Cc1ccc2[nH]cc(CCN(C)C)c2c1.O=C(O)CCC(=O)O [SUMATRIPTAN SUCCINATE],Compound NOT metabolized,Compound NOT metabolized,Compound NOT metabolized,–,Compound NOT metabolized,–,Compound NOT metabolized
CCCCCNC(=N)N/N=C/c1c[nH]c2ccc(OC)cc12.O=C(O)/C=C\C(=O)O [TEGASEROD MALEATE],Compound NOT metabolized,Compound NOT metabolized,Compound NOT metabolized,–,Compound NOT metabolized,Compound NOT metabolized,Compound NOT metabolized
CC(=O)CC(c1ccccc1)c1c(O)c2ccccc2oc1=O (configuration not stated) [WARFARIN],Compound NOT metabolized,–,Compound NOT metabolized,Compound NOT metabolized,Compound NOT metabolized,Compound NOT metabolized,Compound NOT metabolized
Cc1ccc(-c2nc3ccc(C)cn3c2CC(=O)N(C)C)cc1 [ZOLPIDEM],Compound NOT metabolized,–,Compound NOT metabolized,Compound NOT metabolized,Compound NOT metabolized,Compound NOT metabolized,Compound NOT metabolized

# — ChEMBL document CHEMBL5303573, “Mapping human microbiome drug metabolism by gut bacteria and their genes” (Nature, 2019)
